Experiments:
[1] = test system: Pongo abelii TMC6 protein; test: Calcium imaging of CHO-K1 cells expressing the Pongo abelii TMC6 gene; type: cell-based; settings: stimulation with high-concentration NaCl solution for 60 sec, 31 cells
Text: CHO-K1 cells were transfected with Macaca mulatta TMC6-2A-YC260TM in pcDNA3.1(−), Pongo abelii TMC6-2A-YC260TM in pcDNA3.1(−), Mouse-Aotus nancymaae chimera TMC6 2A-YC260TM in pcDNA3.1(−), or YC2.60-pcDNA, to prepare TMC6-expressing cells (cells expressing the Macaca mulatta TMC6 gene, the Pongo abelii TMC6 gene, or the mouse/Aotus nancymaae chimeric TMC6 gene, in combination with the YC2.60 gene) and control cells (cells expressing the YC2.60 gene). The prepared cells were stimulated, and activation of the cells was measured. The procedure was as follows.
First, a plurality of sterile cover glasses (18×32 mm, Matsunami Glass) were placed at the bottom of a culture dish having a diameter of 100 mm so as not to be overlapped to each other. CHO-K1 cells (ATCC) were inoculated thereto while adjusting the number of the cells to obtain 60% confluence, and cultured for 24 hr. Then, medium exchange was carried out. As the medium, 12 mL of Ham's F-12K (Kaighn's) (Life Technologies) containing 10% fetal bovine serum (Life Technologies) was used. […]
Change of the intracellular calcium concentration was measured and analyzed with analysis software equipped with FV1200. An average YFP/CFP value of all the cell of which the YFP/CFP value was changed by stimulation with the ATP stimulation solution was calculated at each measurement. […]

[2] = test system: C57BL/6J mouse and knockout mice; test: NaCl palatability test, two-bottle choice method; settings: for NaCl palatability: 96 hr
Procedure: Thus, an NaCl palatability test was carried out by using the wild-type C57BL/6J mouse and the knockout mice obtained in Example 1.
The NaCl palatability test was carried out by the two-bottle choice method (abbreviated as “two-bottle method”) for 96 hr. That is, two 11-mL plastic bottles (water dispenser bottles) were filled with a test aqueous solution, moisture outside of the bottles was wiped out and dried, the weights thereof (the total weight of the bottle, a water dispenser tube made of stainless, and the aqueous solution, for each bottle) were measured, and the bottles were inserted into a metal lid of a breeding cage at an angle of approximately 30 degrees. […] The positions of the bottles were laterally interchanged every day. The weights of the bottles were measured every 24 hours, to calculate the reduced amounts of the aqueous solutions. Separately, four water dispenser bottles filled with deionized water were located on a vacant breeding cage, and changes of the weights were measured every day, to calculate an average value of the sum of the evaporation amount of the aqueous solution and the dropped amount of the aqueous solution due to experimental operation (approximately 0.05 g to 0.06 g). To prevent dropping of the aqueous solutions due to rocking of the lid of the breeding cage and the bottles by the mice, a transparent acryl board (10 cm×15 cm×1 cm, 180 g) was located on the bottles as a weight. The average value of the sum of the evaporation and dropped amounts of each aqueous solution was subtracted from the reduced amount of the same, and the resulting value was regarded as the intake amount of each aqueous solution. The ratio of the intake amount of the NaCl aqueous solution with respect to the total intake amount of the control aqueous solution and the NaCl aqueous solution was calculated and regarded as NaCl palatability.

[3] = test system: control cells (CHO-K1 cells expressing YC2.60 gene); test: Calcium imaging of control cells (CHO-K1 cells expressing YC2.60 gene only); type: cell-based, Chinese hamster; settings: control cells without TMC6, stimulation with high-concentration NaCl solution
Procedure: CHO-K1 cells were transfected with TMC6-pcDNA3.1 or pcDNA3.1 in combination with YC2.60-pcDNA, to prepare TMC6-expressing cells (cells expressing the mouse TMC6 gene and the YC2.60 gene) and control cells (cells expressing the YC2.60 gene). The prepared cells were stimulated, and activation of the cells was measured. The procedure was as follows.
That is, first, CHO-K1 cells (ATCC) were inoculated into a culture dish having a diameter of 60 mm while adjusting the number of the cells to obtain 60% confluence, and cultured for 8 hr. As the medium, 5 mL of Ham's F-12K (Kaighn's) (Life Technologies) containing 10% fetal bovine serum (Life Technologies) was used. A 15 μL aliquot of FuGENE 6 (Promega) was added to 235 μL of Opti-MEM (Thermo Fisher Scientific), and incubated for 5 min at a room temperature. Then, 0.625 μg of TMC6-pcDNA3.1 and 2.5 μg of YC2.60-pcDNA were further added thereto, and incubated for 15 min at a room temperature. Then, the whole of the resultant mixture was dropped into the culture broth of the CHO-K1 cells, and the culture broth was mildly stirred. Then, the cells were further cultured for 18 hr under a condition of 5% CO2 at 37° C., to obtain the TMC6-expressing cells. Similarly, the control cells were obtained through transfection using pcDNA3.1 instead of TMC6-pcDNA3.1.
After the cultivation, the culture broth was removed. […]

With `[Cl-].[Na+]` [NaCl, sodium chloride] the “change of average YFP/CFP value (intracellular calcium concentration)” value [1] was “increase”, the NaCl palatability ([2]; hetero knockout mouse of the TMC6 gene (Tmc6 +/−), 100 mM NaCl + 30 μM amiloride) was “high” and the NaCl palatability ([2]; homo knockout mouse of the TMC3 gene (Tmc3 −/−), 100 mM NaCl + 30 μM amiloride) was “high”. The NaCl palatability ([2]; homo knockout mouse of the TMC6 gene (Tmc6 −/−), 100 mM NaCl + 30 μM amiloride, compared with the other subject mice (P<0.05 or P<0.01)) was “remarkably reduced”, the NaCl palatability ([2]; homo knockout mouse of the TMC8 gene (Tmc8 −/−), 100 mM NaCl + 30 μM amiloride) was “high” and the “palatability for a NaCl aqueous solution” value ([2]; wild-type C57BL/6J mouse fed D12450B (0.1% sodium), without amiloride) was “slightly higher than that for water”. For the same compound, the NaCl palatability ([2]; wild-type C57BL/6J mouse, 100 mM NaCl, in the presence of 30 μM amiloride) was “remarkable and high” and the “change of YFP/CFP value (intracellular calcium concentration)” value [3] was “not observed an increase”.

From US10175228B2, “Method of using transmembrane channel-like protein 6 (TMC6) protein to identify substances affecting salty taste” (priority 2016, dated 2019)
